The record followed here is patent publication EP4782445A1, “CDK KINASE INHIBITOR AND USE THEREOF” (Abbisko Therapeutics Co., Ltd., priority 2023, dated 2025).

The target of one assay is T1, CDK4/cyclin D3 (Homo sapiens, UniProt P11802).
T1 construct: purchased Carna
Briefly: In vitro biochemical kinase activity assay for CDK4/cyclin D3 (HTRF). As for the experimental part:
II. In Vitro Biochemical Kinase Activity Assay for CDK4/Cyclin D3
The inhibitory effects of the compounds of the present invention on CDK4/cyclin D3 kinase activity were determined using an HTRF assay. The experimental process was as follows: • 1. The kinase reaction was carried out in a 384-well plate. 4.9 nM CDK4/cyclin D3 (Carna), 1 mM (or 80 µM) ATP, and 0.3 µM biotin-labeled substrate protein Rb-biotin (Cisbio) were incubated at 30°C for 90 min in a buffer system composed of 50 mM MgCl2, 1 mM DTT, and basal kinase buffer (Cisbio). • 2. The detection solution (Cisbio, containing reagents that specifically recognize phosphorylated Rb and Rb-biotin proteins, respectively) was added. The plate was then sealed with a film (to protect from light and volatilization) and incubated at 25°C for 60 min. • 3. The plate was transferred to an Envision plate reader to detect FRET signals. (The 665/615 ratio was calculated by reading the emission at 665 nm and 615 nM, respectively.) • 4. The IC50 values were determined by analyzing the inhibition at varying compound concentrations using Model 205 in the XLfit software.
A general note: TR-FRET usually uses a lanthanide donor and a delayed reading to cut background.

A further assay has as its target T2, CDK6/cyclin D3 (Homo sapiens, UniProt Q00534).
T2 construct: purchased Carna
The assay is described as follows: In vitro biochemical kinase activity assay for CDK6/cyclin D3 (HTRF). The method, then:
III. In Vitro Biochemical Kinase Activity Assay for CDK6/Cyclin D3
The inhibitory effects of the compounds of the present invention on CDK6/cyclin D3 kinase activity were determined using an HTRF assay. The experimental process was as follows: 1. The kinase reaction was carried out in a 384-well plate. 0.02 nM CDK6/cyclin D3 (Carna), 1 mM (or 100 µM) ATP, and 0.3 µM biotin-labeled substrate protein Rb-biotin (Cisbio) were incubated at 30°C for 60 min in a buffer system composed of 5 mM MgCl2, 1 mM DTT, and basal kinase buffer (Cisbio). 2. The detection solution (Cisbio, containing reagents that specifically recognize phosphorylated Rb and Rb-biotin proteins, respectively) was added. The plate was then sealed with a film (to protect from light and volatilization) and incubated at 25°C for 60 min. 3. The plate was transferred to an Envision plate reader to detect FRET signals. (The 665/615 ratio was calculated by reading the emission at 665 nm and 615 nM, respectively.) 4. The IC50 values were determined by analyzing the inhibition at varying compound concentrations using Model 205 in the XLfit software.

The mark [1] stands for this setting: data marked with *: 1 mM ATP in Step 1.
The mark [2] stands for this setting: unmarked data: 80 µM ATP in Step 1.
The mark [3] stands for this setting: unmarked data: 100 µM ATP in Step 1.

T2 sequence (Q00534 whole entry): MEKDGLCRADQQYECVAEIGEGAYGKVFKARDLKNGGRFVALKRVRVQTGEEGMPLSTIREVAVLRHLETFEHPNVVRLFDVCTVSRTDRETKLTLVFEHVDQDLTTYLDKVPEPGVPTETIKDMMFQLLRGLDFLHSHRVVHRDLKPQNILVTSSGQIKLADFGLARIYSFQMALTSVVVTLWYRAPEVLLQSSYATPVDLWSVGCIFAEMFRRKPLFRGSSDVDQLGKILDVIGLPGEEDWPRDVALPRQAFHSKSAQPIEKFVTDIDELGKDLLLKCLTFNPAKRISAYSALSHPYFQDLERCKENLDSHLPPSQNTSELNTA
T2 sequence (P30281 whole entry partner): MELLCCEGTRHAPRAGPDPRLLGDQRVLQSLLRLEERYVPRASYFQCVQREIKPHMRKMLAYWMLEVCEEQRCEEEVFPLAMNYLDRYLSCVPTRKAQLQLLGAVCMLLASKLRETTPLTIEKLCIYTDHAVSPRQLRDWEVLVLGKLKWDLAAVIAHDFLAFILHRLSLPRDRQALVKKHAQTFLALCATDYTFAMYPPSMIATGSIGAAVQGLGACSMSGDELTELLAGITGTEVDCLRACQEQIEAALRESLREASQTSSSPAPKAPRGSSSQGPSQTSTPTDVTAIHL
T1 sequence (P11802 whole entry): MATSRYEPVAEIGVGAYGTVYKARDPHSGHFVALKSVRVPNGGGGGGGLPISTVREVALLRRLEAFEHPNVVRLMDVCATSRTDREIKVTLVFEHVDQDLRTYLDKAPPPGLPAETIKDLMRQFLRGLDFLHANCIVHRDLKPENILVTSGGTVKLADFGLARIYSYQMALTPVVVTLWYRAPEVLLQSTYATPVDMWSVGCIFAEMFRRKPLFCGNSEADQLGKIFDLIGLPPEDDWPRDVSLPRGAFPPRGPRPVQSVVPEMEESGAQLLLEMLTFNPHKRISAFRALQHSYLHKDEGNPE
T1 sequence (P30281 whole entry partner): as the sequence (P30281 whole entry partner) above

`CC(C)n1c(C#Cc2nc(Nc3ccc(C4CCN(C)CC4)cn3)ncc2F)cnc1C(C)(C)O` [Example 73, 2-(5-((5-fluoro-2-((5-(1-methylpiperidin-4-yl)pyridin-2-yl)amino)pyrimidin-4-yl)ethynyl)-1-isopropyl-1H-imidazol-2-yl)propan-2-ol]: the IC50 (as a rule, the concentration at which inhibition is half-maximal) against CDK4/cyclin D3 (setting [1]) is 6.43 nM; against CDK6/cyclin D3 (setting [1]) it was 26.7 nM.
For `CC(C)n1c(C#Cc2nc(N[C@@H]3CCOC[C@H]3O)ncc2F)cnc1C(C)(C)O` [Example 95, (3 S,4R)-4-((5-fluoro-4-((2-(2-hydroxypropan-2-yl)-1-isopropyl-1H-imidazol-5-yl)ethynyl)pyrimidin-2-yl)amino)tetrahydro-2H-pyran-3-ol], the IC50 is 117 nM against CDK4/cyclin D3 (setting [1]) and 829 nM against CDK6/cyclin D3 (setting [1]).
`CC(C)n1c(C#Cc2nc(N[C@@H]3CCOC[C@H]3O)ncc2Cl)cnc1CN1[C@H](C)COC[C@@H]1C` [Example 72, (3S,4R)-4-((5-chloro-4-((2-(((3R,5S)-3,5-dimethylmorpholino)methyl)-1-isopropyl-1H-imidazol-5-yl)ethynyl)pyrimidin-2-yl)amino)tetrahydro-2H-pyran-3-ol]: the IC50 was determined as 17 nM against CDK4/cyclin D3 (setting [1]) and 263 nM against CDK6/cyclin D3 (setting [1]).
`CC(C)n1c(C#Cc2nc(N[C@@H]3CCOC[C@H]3O)ncc2Cl)cnc1N1CCOC1=O` [Example 126, 3-(5-((5-chloro-2-(((3S,4R)-3-hydroxytetrahydro-2H-pyran-4-yl)amino)pyrimidin-4-yl)ethynyl)-1-isopropyl-1H-imidazol-2-yl)oxazolidin-2-one]: the IC50 came to 17 nM against CDK4/cyclin D3 (setting [1]) and 75.8 nM at CDK6/cyclin D3 (setting [1]).
For `CCN1CC2(C1)CN(c1ccc(Nc3ncc(F)c(C#Cc4cnc(C)n4C(C)C)n3)nc1)C2` [Example 81, N-(5-(6-ethyl-2,6-diazaspiro[3.3]heptan-2-yl)pyridin-2-yl)-5-fluoro-4-((1-isopropyl-2-methyl-1H-imidazol-5-yl)ethynyl)pyrimidin-2-amine], in that order: 9.86 nM and 59.1 nM.
For `CC(C)n1c(C#Cc2nc(N[C@@H]3CCOC[C@H]3O)ncc2Cl)cnc1[C@@H](C)N1CCC[C@H](O)C1` [Example 123, (S)-1-((R)-1-(5-((5-chloro-2-(((3 S,4R)-3-hydroxytetrahydro-2H-pyran-4-yl)amino)pyrimidin-4-yl)ethynyl)-1-isopropyl-1H-imidazol-2-yl)ethyl)piperidin-3-ol] the same measures were 36.9 nM and 545 nM.
`CC(C)c1c(C#Cc2nc(N[C@@H]3CCOC[C@H]3O)ncc2Cl)cnn1CC(F)F` [Example 128, (3 S,4R)-4-((5-chloro-4-((1-(2,2-difluoroethyl)-5-isopropyl-1H-pyrazol-4-yl)ethynyl)pyrimidin-2-yl)amino)tetrahydro-2H-pyran-3-ol]: the IC50 on CDK4/cyclin D3 (setting [1]) was 53.3 nM; against CDK6/cyclin D3 (setting [1]), 254 nM.
For `CC(C)n1c(C#Cc2nc(N[C@@H]3CCOC[C@H]3O)ncc2Cl)cnc1C1(O)CCCC1` [Example 90, (3 S,4R)-4-((5-chloro-4-((2-(1-hydroxycyclopentyl)-1-isopropyl-1H-imidazol-5-yl)ethynyl)pyrimidin-2-yl)amino)tetrahydro-2H-pyran-3-ol] the same measures were 23 nM and 253 nM.
As to `CC(C)n1c(C#Cc2nc(Nc3ccc(N4CC5(CN(C)C5)C4)cn3)ncc2Cl)cnc1CN1CCC[C@H](O)C1` [Example 115, (S)-1-((5-((5-chloro-2-((5-(6-methyl-2,6-diazaspiro[3.3]heptan-2-yl)pyridin-2-yl)amino)pyrimidin-4-yl)ethynyl)-1-isopropyl-1H-imidazol-2-yl)methyl)piperidin-3-ol], the IC50 was found to be 2.28 nM at CDK4/cyclin D3 (setting [1]) and 17.9 nM on CDK6/cyclin D3 (setting [1]).
For `CN(C)c1c(C#Cc2nc(N[C@@H]3CCOC[C@H]3O)ncc2Cl)cnn1C` [Example 130, (3 S,4R)-4-((5-chloro-4-((5-(dimethylamino)-1-methyl-1H-pyrazol-4-yl)ethynyl)pyrimidin-2-yl)amino)tetrahydro-2H-pyran-3-ol], in that order: 23.5 nM and 222 nM.
As to “(3S,4R)-4-((5-chloro-4-((1-(1, 1-difluoropropan-2-yl)-2-(2-hydroxypropan-2-yl)-1H-imidazol-5-yl)ethynyl)pyrimidin-2-yl)amino)tetrahydro-2H-pyran-3-ol [Example 133]”, the IC50 worked out at 260 nM against CDK4/cyclin D3 (setting [1]) and 1140 nM at CDK6/cyclin D3 (setting [1]).
For `CC1(C)OCCn2ncc(C#Cc3nc(N[C@@H]4CCOC[C@H]4O)ncc3Cl)c21` [Example 111, (3 S,4R)-4-((5-chloro-4-((4,4-dimethyl-6,7-dihydro-4H-pyrazolo[5,1-c][1,4]oxazin-3-yl)ethynyl)pyrimidin-2-yl)amino)tetrahydro-2H-pyran-3-ol], in that order: 47.1 nM and 335 nM.
For “(3 S,4R)-4-((5-chloro-4-((1-(1, 1-difluoropropan-2-yl)-1H-imidazol-5-yl)ethynyl)pyrimidin-2-yl)amino)tetrahydro-2H-pyran-3-ol [Example 134]” the same measures were 36.1 nM and 230 nM.
With `CC1CCN(C)c2ncc(C#Cc3nc(N[C@@H]4CCOC[C@H]4O)ncc3Cl)n21` (stereo partly drawn) [Example 135, (3 S,4R)-4-((5-chloro-4-((5,8-dimethyl-5,6,7,8-tetrahydroimidazo[1,2-a]pyrimidin-3-yl)ethynyl)pyrimidin-2-yl)amino)tetrahydro-2H-pyran-3-ol], the IC50 on CDK4/cyclin D3 (setting [1]) came to 177 nM; against CDK6/cyclin D3 (setting [1]) it was 275 nM.
As for `CC(C)n1c(C#Cc2nc(N[C@@H]3CCOC[C@H]3O)ncc2Cl)cnc1CC1(N)CCCC1` [Example 131, (3S,4R)-4-((4-((2-((1-aminocyclopentyl)methyl)-1-isopropyl-1H-imidazol-5-yl)ethynyl)-5-chloropyrimidin-2-yl)amino)tetrahydro-2H-pyran-3-ol], the IC50 against CDK4/cyclin D3 (setting [1]) came to 23.2 nM; on CDK6/cyclin D3 (setting [1]), 684 nM.
Take `Cc1ncc(C#Cc2nc(N[C@@H]3CCOC[C@H]3O)ncc2Cl)n1C(C)C` [Example 79, (3 S,4R)-4-((5-chloro-4-((1-isopropyl-2-methyl-1H-imidazol-5-yl)ethynyl)pyrimidin-2-yl)amino)tetrahydro-2H-pyran-3-ol]: the IC50 against CDK4/cyclin D3 (setting [1]) came to 17.2 nM; against CDK6/cyclin D3 (setting [1]), 179 nM.
In the case of `CC(C)n1c(C#Cc2nc(N[C@@H]3CCOC[C@H]3C)ncc2Cl)cnc1C(C)(C)O` [Example 86, 2-(5-((5-chloro-2-(((3 S,4R)-3-methyltetrahydro-2H-pyran-4-yl)amino)pyrimidin-4-yl)ethynyl)-1-isopropyl-1H-imidazol-2-yl)propan-2-ol], the IC50 on CDK4/cyclin D3 (setting [2]) was found to be 480 nM; against CDK6/cyclin D3 (setting [3]) it was 1970 nM.
As for `CC(C)(C)n1cncc1C#Cc1nc(N[C@@H]2CCOC[C@H]2O)ncc1Cl` [Example 136, (3S,4R)-4-((4-((1-(tert-butyl)-1H-imidazol-5-yl)ethynyl)-5-chloropyrimidin-2-yl)amino)tetrahydro-2H-pyran-3-ol], the IC50 was 10.3 nM against CDK4/cyclin D3 (setting [2]) and 39.3 nM at CDK6/cyclin D3 (setting [3]).
As for `CCN1CCN(Cc2ccc(Nc3ncc(F)c(C#Cc4cnn(C)c4C(C)C)n3)nc2)CC1` [Example 70, N-(5-((4-ethylpiperazin-1-yl)methyl)pyridin-2-yl)-5-fluoro-4-((5-isopropyl-1-methyl-1H-pyrazol-4-yl)ethynyl)pyrimidin-2-amine], the IC50 at CDK4/cyclin D3 (setting [1]) was 15.1 nM; against CDK6/cyclin D3 (setting [1]), 131 nM.
Consider `CC(C)n1c(C#Cc2nc(N[C@@H]3CCOC[C@H]3O)ncc2Cl)cnc1CN1CCC[C@H](O)C1` [Example 75, (S)-1-((5-((5-chloro-2-(((3 S,4R)-3-hydroxytetrahydro-2H-pyran-4-yl)amino)pyrimidin-4-yl)ethynyl)-1-isopropyl-1H-imidazol-2-yl)methyl)piperidin-3-ol], for which the IC50 against CDK4/cyclin D3 (setting [1]) came to 21.2 nM; against CDK6/cyclin D3 (setting [1]) it was 1160 nM.
For `CC(C)n1c(C#Cc2cc(N[C@@H]3CCOC[C@H]3O)ncc2Cl)cnc1C(C)(C)O` [Example 118, (3 S,4R)-4-((5-chloro-4-((2-(2-hydroxypropan-2-yl)-1-isopropyl-1H-imidazol-5-yl)ethynyl)pyridin-2-yl)amino)tetrahydro-2H-pyran-3-ol], in that order: 21.7 nM and 135 nM.
As to `CC(=O)N[C@@H]1COCC[C@H]1Nc1ncc(Cl)c(C#Cc2cnc(C(C)(C)O)n2C(C)C)n1` [Example 87, N-((3 S,4R)-4-((5-chloro-4-((2-(2-hydroxypropan-2-yl)-1-isopropyl-1H-imidazol-5-yl)ethynyl)pyrimidin-2-yl)amino)tetrahydro-2H-pyran-3-yl)acetamide], the values for the IC50 against CDK4/cyclin D3 (setting [1]) and against CDK6/cyclin D3 (setting [1]) were 3970 nM and 9360 nM, respectively.
